Measurements taken from patent publication US20090143285A1, “TARGET PROTEIN AND TARGET GENE FOR DRUG DISCOVERY AND SCREENING METHOD” (REVERSE PROTEOMICS RESEARCH INSTITUTE CO., LTD., priority 2005, published 2009).
Positions count from the first letter of the chain named. Entries after “also recorded” stand apart in the source; their conditions may differ. Where two headings read alike, the source gives them in different places.

Experiments:
FLJ38897-derived protein = biological target: T1, FLJ38897-derived protein (Homo sapiens, UniProt P57764); test: SEC/MS interaction analysis, FLJ38897-derived protein (GSDMDC1); assay type: binding; settings: spin column method; mixture with protein vs buffer solution alone; data not shown
T1 construct: His-tag (N); made in house; host or cells: Escherichia coli BL21star(DE3)pLysS
T1 sequence (P57764 265-484): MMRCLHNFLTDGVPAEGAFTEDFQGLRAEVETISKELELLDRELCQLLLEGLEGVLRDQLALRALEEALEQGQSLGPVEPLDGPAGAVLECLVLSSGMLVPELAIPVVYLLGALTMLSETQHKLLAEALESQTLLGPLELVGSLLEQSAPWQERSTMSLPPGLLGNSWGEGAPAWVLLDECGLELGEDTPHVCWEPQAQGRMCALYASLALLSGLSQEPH
Excerpt: (§1) To analyze the interactions between commonly used drugs and proteins expressed from human full-length cDNA clones while keeping both the proteins and the compounds in non-modified, non-immobilized state, size exclusion chromatography (SEC) and mass analysis were used in combination. The specific procedures are shown below.
(§2) The compound-protein mixture prepared in step 1 was subjected to chromatography using an SEC column, the compound and the protein were separated by SEC, and the compound that interacted with the bound compound or protein contained in the protein fraction was analyzed using a mass analyzer.
(§3) Protein concentrations were measured using BCA Protein Assay (PIERCE), in consideration of the purity calculated by SDS-PAGE.
(§4) Mass analysis was performed using LCQ DECA XP (Thermoelectron) or Q-TOF micro (Micromass), equipped with an ESI probe. The LC pump used was Agilent 1100 (Yokogawa Analytical Systems), and the autosampler used was HTC-PAL (CTC Analytics) equipped with a cooling stacker. The SEC column used was a micro-LC column or a 384-well spin column. […]
(§5) In the 384-well spin column method, Unifilter 100 (Whatman), packed with 10 μL (dry volume) of Bio-Gel P6 (BIO-RAD) and swollen with milliQ water, was used as the SEC column. […] The SEC spin column was mounted on an acetonitrile-aliquoted 384-well U-bottom plate and centrifuged; the SEC spin column filtrate, which is a protein fraction, was recovered in 50% acetonitrile. The protein precipitate produced by the acetonitrile was removed via centrifugation and filtration for deproteinization; the resulting filtrate was concentrated by centrifugal concentration and re-dissolved in 10 μL of 50% methanol to obtain a mass analysis sample. The mobile phase supplied to the mass analyzer was 0.1% formic acid/50% methanol solution in the positive ion mode, and 0.1% ammonia/50% methanol solution in the negative ion mode; these mobile phases were used at a flow rate of 40 μL/min. 2-μL of mass analysis samples were injected using an autosampler at 2-minute intervals; the mass spectral intensity of the compound was measured to retrieve the spectral intensity of the pharmaceutical compound contained in the SEC spin column filtrate (protein fraction eluted from SEC).

[1] = tested on: FLJXXXXX-derived proteins; test: SEC/MS spin column interaction analysis of FLJXXXXX-derived proteins and various compounds (Tables 30-1 to 30-4); assay type: binding, human
FLJ41991-derived protein = biological target: T2, FLJ41991-derived protein (Homo sapiens, UniProt P57764, E293G); test: SEC/MS interaction analysis, FLJ41991-derived protein (GSDMDC1); assay type: binding; settings: for interaction judged from spectrum intensity of the compound in the SEC spin column filtrate (protein fraction eluted from SEC): spin column method, doses of both compound and protein varied
T2 construct: His-tag (N); made in house; host or cells: Escherichia coli BL21star(DE3)pLysS (pDEST17)
T2 sequence (P57764 265-484 E293G): T1 sequence (P57764 265-484) with E29G
Excerpt: as §1, §2, §3, §4, §5

[2] = SEC spin column filtrate, spectral intensity increased with doses of compound and protein
[3] = compound 12.5 μM, protein 10 μM
[4] = compound 12.5 μM, protein 25 μM
[5] = compound 62.5 μM, protein 10 μM
[6] = compound 62.5 μM, protein 25 μM

interaction judged from mass spectrum peak intensity of the compound in the spin column filtrate (FLJ38897-derived protein) | spectrum intensity of the compound in the SEC spin column filtrate (FLJ41991-derived protein; compound 12.5 μM, protein 0 μM) | spectrum intensity of the compound in the SEC spin column filtrate (FLJ41991-derived protein; compound 12.5 μM, protein 5 μM) | spectrum intensity of the compound in the SEC spin column filtrate (FLJ41991-derived protein; [3]) | spectrum intensity of the compound in the SEC spin column filtrate (FLJ41991-derived protein; [4]) | spectrum intensity of the compound in the SEC spin column filtrate (FLJ41991-derived protein; compound 25 μM, protein 0 μM) | spectrum intensity of the compound in the SEC spin column filtrate (FLJ41991-derived protein; compound 25 μM, protein 5 μM) | spectrum intensity of the compound in the SEC spin column filtrate (FLJ41991-derived protein; compound 25 μM, protein 10 μM) | spectrum intensity of the compound in the SEC spin column filtrate (FLJ41991-derived protein; compound 25 μM, protein 25 μM) | spectrum intensity of the compound in the SEC spin column filtrate (FLJ41991-derived protein; compound 62.5 μM, protein 0 μM) | spectrum intensity of the compound in the SEC spin column filtrate (FLJ41991-derived protein; compound 62.5 μM, protein 5 μM) | spectrum intensity of the compound in the SEC spin column filtrate (FLJ41991-derived protein; [5]) | spectrum intensity of the compound in the SEC spin column filtrate (FLJ41991-derived protein; [6]) | interaction judged from spectrum intensity of the compound in the SEC spin column filtrate (protein fraction eluted from SEC) (FLJ41991-derived protein) | Structure (SMILES) | FLJ No of the derived protein with which the compound was judged to exhibit a concentration-dependent interaction [1, 2] | FLJ No of the derived protein with which the compound was judged to exhibit a concentration-dependent interaction [1]
there was an interaction | 143943 | 220928 | 285013 | 489071 | 152947 | 491863 | 560686 | 1352077 | 911727 | 1861766 | 2757526 | 3061987 | concentration-dependent interaction | CN1[C@@H]2CC[C@H]1C[C@@H](OC(c1ccccc1)c1ccccc1)C2 [benztropine] | FLJ38897; also recorded: FLJ41991 | 
there was an interaction | 178622 | 175333 | 226245 | 393132 | 161141 | 149738 | 277798 | 490640 | 156021 | 210998 | 626223 | 2564975 | concentration-dependent interaction | CN(C)CC/C=C1/c2ccccc2Sc2ccc(Cl)cc21 [chlorprothixene] | FLJ38897; also recorded: FLJ41991 | 
there was an interaction | 87861 | 162795 | 434899 | 1101486 | 193639 | 276524 | 843648 | 1778376 | 200313 | 1055670 | 3173659 | 6405132 | concentration-dependent interaction | OCCN1CCN(CCCN2c3ccccc3Sc3ccc(C(F)(F)F)cc32)CC1 [fluphenazine] | FLJ38897; also recorded: FLJ41991 | 
there was an interaction | 16334 | 46239 | 101775 | 453818 | 27931 | 100287 | 273106 | 1788847 | 97153 | 528117 | 2017157 | 4385022 | concentration-dependent interaction | OC(c1cc(C(F)(F)F)nc2c(C(F)(F)F)cccc12)C1CCCCN1 (centres unmarked) [mefloquine] | FLJ37909; also recorded: FLJ38897; also recorded: FLJ41991 | 
there was an interaction | 23424 | 43607 | 83672 | 314285 | 38186 | 71806 | 229107 | 799962 | 35061 | 208220 | 695158 | 2872912 | concentration-dependent interaction | OCCN1CCN(CCCN2c3ccccc3Sc3ccc(Cl)cc32)CC1 [perphenazine] | FLJ38897; also recorded: FLJ41991 | 
there was an interaction | 19251 | 32265 | 67187 |  | 37961 | 52442 | 119306 | 1312562 | 58164 | 153267 | 1091123 | 3195671 | concentration-dependent interaction | O=C(c1ccc(OCCN2CCCCC2)cc1)c1c(-c2ccc(O)cc2)sc2cc(O)ccc12 [raloxifene] | FLJ37909; also recorded: FLJ38897; also recorded: FLJ41991 | 

Structure (SMILES) | interaction judged from mass spectrum peak intensity of the compound in the spin column filtrate (FLJ38897-derived protein) | spectrum intensity of the compound in the SEC spin column filtrate (FLJ41991-derived protein; compound 12.5 μM, protein 0 μM) | spectrum intensity of the compound in the SEC spin column filtrate (FLJ41991-derived protein; compound 12.5 μM, protein 5 μM) | spectrum intensity of the compound in the SEC spin column filtrate (FLJ41991-derived protein; [3]) | spectrum intensity of the compound in the SEC spin column filtrate (FLJ41991-derived protein; [4]) | spectrum intensity of the compound in the SEC spin column filtrate (FLJ41991-derived protein; compound 25 μM, protein 0 μM) | spectrum intensity of the compound in the SEC spin column filtrate (FLJ41991-derived protein; compound 25 μM, protein 5 μM) | spectrum intensity of the compound in the SEC spin column filtrate (FLJ41991-derived protein; compound 25 μM, protein 10 μM) | spectrum intensity of the compound in the SEC spin column filtrate (FLJ41991-derived protein; compound 25 μM, protein 25 μM) | spectrum intensity of the compound in the SEC spin column filtrate (FLJ41991-derived protein; compound 62.5 μM, protein 0 μM) | spectrum intensity of the compound in the SEC spin column filtrate (FLJ41991-derived protein; compound 62.5 μM, protein 5 μM) | spectrum intensity of the compound in the SEC spin column filtrate (FLJ41991-derived protein; [5]) | spectrum intensity of the compound in the SEC spin column filtrate (FLJ41991-derived protein; [6]) | interaction judged from spectrum intensity of the compound in the SEC spin column filtrate (protein fraction eluted from SEC) (FLJ41991-derived protein) | FLJ No of the derived protein with which the compound was judged to exhibit a concentration-dependent interaction [1, 2] | FLJ No of the derived protein with which the compound was judged to exhibit a concentration-dependent interaction [1]
CN(C)C(=O)C(CCN1CCC(O)(c2ccc(Cl)cc2)CC1)(c1ccccc1)c1ccccc1 [loperamide] | there was an interaction | 75412 | 200285 | 950587 | 1688197 | 263744 | 863800 | 1856141 | 4462655 | 1579322 | 3520629 | 6073080 | 9496680 | concentration-dependent interaction |  | FLJ41991; also recorded: FLJ38897
